How the values were obtained:
[1] = test system: antiserum raised to immunogen C (hapten C-BSA), IgG fraction; experiment: Competitive ELISA microtiter plate assay for ketamine and norketamine (conjugate A, hapten A-HRP, as detection reagent); type: binding, sheep; conditions: for IC50, CR = concentration of potential cross-reactant that causes 50% displacement of signal: potential cross-reactants, standards 0-500 ng/ml
Method: An aqueous solution of the immunogen prepared in Example 10 was formulated with Freund's Complete Adjuvant (FCA) to form an emulsion consisting of 4 mg/ml immunogen in 50% (v/v) FCA. Three sheep were immunised with this emulsion (1° immunisation), 0.25 ml being subcutaneously injected at each of four sites in the flank of each animal. The next immunisation (boost 1) contained 2 mg/ml immunogen and subsequent immunizations (boosts 2 to 11) contained 1 mg/ml immunogen. All boosts were emulsified in 50% (v/v) Freund's Incomplete Adjuvant (FIA) and were administered in the same manner as the 1° immunisation, at monthly intervals for 1 year. Blood sampling took place 7 to 14 days after each boost. Each sample was processed to produce antiserum, which was further purified by caprylic acid and ammonium sulfate precipitation to yield an immunoglobulin G (IgG) fraction. The IgG fraction was evaluated by competitive ELISA microtiter plate assay, as described in Example 16 below.
The wells of an enhanced binding 96 well polystyrene microtiter plate were coated with the IgG fraction of the antiserum raised to immunogen C (hapten C-BSA) (Example 10), diluted in 10 mM Tris, pH 8.5 (125 μl/well). The appropriate antibody coating dilution was determined using standard ELISA checkerboard techniques. The plate was incubated for 2 hours at 37° C., washed 4 times with Tris buffered saline containing Tween 20 (TBST) and tapped dry. Standard solutions of ketamine and norketamine were prepared in TBST at 0, 0.1, 0.5, 1, 5, 25, 100 and 500 ng/ml and 50 μl of each was added to the appropriate wells (FIG. 4). 75 μl of conjugate A (hapten A-HRP) (Example 11), diluted in Tris buffer (pH 7.2) containing EDTA, D-mannitol, sucrose, thimerosal and BSA, was added to each of the wells, as shown in FIG. 4. The appropriate dilution of conjugate was also determined using standard ELISA checkerboard techniques. The plate was incubated at 37° C. for 2 hours. Excess unbound conjugate was removed by washing 6 times over a 10 minute period with TBST.
125 μl of tetramethylbenzidine (TMB) substrate solution was added to each well of the plate that was then incubated for 15 to 20 minutes in the dark at room temperature. The reaction was terminated by addition of 125 μl 0.2M H2SO4 to each well. The absorbance was then measured at 450 nm using a microtiter plate reader.
In order to determine the specificity of the competitive ELISA for ketamine and norketamine, standard solutions were prepared in TBST at 0, 0.1, 0.5, 1, 5, 25, 100 and 500 ng/ml. Employing each series of standards in the ketamine competitive ELISA, calibration curves were generated and these were used to determine the cross-reactivity of the immunoassay with these substances. The results of this study are presented in Table 2, cross-reactivity of potential cross-reactants phencyclidine and dextromethorphan being calculated according to the following formula: % CR=IC50, Ketamine/IC50, CR×100
Where %CR is the percentage cross-reactivity, IC50, Ketamine is the concentration of ketamine that causes 50% displacement of signal and IC50, CR is the concentration of potential cross-reactant that causes 50% displacement of signal.

[2] = test system: Neogen kit antibodies developed against a ketamine hapten; conditions: Neogen ELISA kit; cited from earlier work
[3] = test system: antibodies against five epitopes of phencyclidine (PCP)-like molecules; conditions: antibodies to PCP-like haptens conjugated to BSA; Table 2, page 475 of Owens et al; cited from earlier work
[4] = test system: antibodies to phenylcyclohexylamine derivative immunogens; conditions: Abbott immunoassay, Table 3(c) at page 18; cited from earlier work
[5] = test system: antibodies to PCP and other arylcyclohexylamines; conditions: as indicated by high IC50 values, Table 1, page 667 of Owens et al; cited from earlier work
[6] = antiserum to immunogen C, conjugate A
[7] = standard concentration 0.1 ng/ml
[8] = standard concentration 0.5 ng/ml
[9] = standard concentration 25 ng/ml
[10] = standard concentration 100 ng/ml
[11] = standard concentration 500 ng/ml
[12] = % CR=IC50, Ketamine/IC50, CR×100

Structure (SMILES)	% CR = percentage cross-reactivity based on specificity to ketamine [1, 6] [%]	IC50 = standard concentration which produces 50% B/B0 [1, 6] [µg/mL]	% B/B0 [1, 7] [%]	% B/B0 [1, 8] [%]	% B/B0 ([1]; standard concentration 1 ng/ml) [%]	% B/B0 ([1]; standard concentration 5 ng/ml) [%]	% B/B0 [1, 9] [%]	% B/B0 [1, 10] [%]	% B/B0 [1, 11] [%]	cross-reactivity [2] [%]	cross-reactivity [3] [%]	cross-reactivity [4]	cross-reactivity [5]	% CR = percentage cross-reactivity based on specificity to ketamine [1, 12] [%]	IC50, CR = concentration of potential cross-reactant that causes 50% displacement of signal [1] [µg/mL]
CNC1(c2ccccc2Cl)CCCCC1=O (racemic) [Ketamine, (±)-2-(o-chlorophenyl)-2-(methylamino) cyclohexanone]	100.0	0.0029	92.1	82.8	67.9	42.6	25.0	18.4	11.6	100	< 0.6	does not cross-react significantly	low levels of cross-reactivity		
COc1ccc2c(c1)[C@]13CCCC[C@@H]1[C@H](C2)N(C)CC3 [Dextromethorphan]														<0.58	>0.5
NC1(c2ccccc2Cl)CCCCC1=O (stereo not drawn) [Norketamine, [2-amino-2-(o-chlorophenyl)]cyclohexanone]	138.1	0.0021	86.9	66.8	64.5	45.3	22.7	15.1	10.5	4.6					
c1ccc(C2(N3CCCCC3)CCCCC2)cc1 [Phencyclidine]														<0.58	>0.5

Source: patent publication US7371829B2, “Haptens, immunogens, antibodies and conjugates to ketamine and its metabolites” (Randox Laboratories Limited, priority 2002, dated 2008)
